From ChEMBL document CHEMBL5108038, “Development of Inhibitors Targeting the V-Domain Ig Suppressor of T Cell Activation Signal Pathway” (J Med Chem, 2022) come the findings set out here.

In test [1] the target is T1, V-set and immunoglobulin domain-containing protein 8 (Homo sapiens, UniProt P0DPA2).
T1 sequence (P0DPA2 whole entry): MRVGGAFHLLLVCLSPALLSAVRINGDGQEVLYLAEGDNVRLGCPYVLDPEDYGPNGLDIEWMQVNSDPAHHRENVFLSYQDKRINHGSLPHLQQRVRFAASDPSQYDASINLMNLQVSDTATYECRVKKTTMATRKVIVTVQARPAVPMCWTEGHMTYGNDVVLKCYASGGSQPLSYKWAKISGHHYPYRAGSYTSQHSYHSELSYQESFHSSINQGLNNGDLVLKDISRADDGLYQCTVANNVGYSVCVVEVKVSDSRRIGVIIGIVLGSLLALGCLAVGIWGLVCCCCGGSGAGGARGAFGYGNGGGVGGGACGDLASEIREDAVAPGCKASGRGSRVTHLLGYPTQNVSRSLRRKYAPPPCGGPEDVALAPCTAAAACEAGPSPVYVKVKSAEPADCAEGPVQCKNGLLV
Briefly: Binding affinity to human VSIG8 assessed as dissociation constant by MST method.

A short description of test [2]: Antitumor immunity in PBMC (unknown origin) assessed as inhibition of VSIG8 binding to VISTA. In kind it is functional, cell-based.
A short description of test [3]: Inhibition of VISTA/VSIG3 protein protein interaction (unknown origin) by FRET method. More on the design: species or system Homo sapiens.
Test [4] concerns the target T2, V-type immunoglobulin domain-containing suppressor of T-cell activation (Homo sapiens, UniProt Q9H7M9).
T2 sequence (Q9H7M9 whole entry): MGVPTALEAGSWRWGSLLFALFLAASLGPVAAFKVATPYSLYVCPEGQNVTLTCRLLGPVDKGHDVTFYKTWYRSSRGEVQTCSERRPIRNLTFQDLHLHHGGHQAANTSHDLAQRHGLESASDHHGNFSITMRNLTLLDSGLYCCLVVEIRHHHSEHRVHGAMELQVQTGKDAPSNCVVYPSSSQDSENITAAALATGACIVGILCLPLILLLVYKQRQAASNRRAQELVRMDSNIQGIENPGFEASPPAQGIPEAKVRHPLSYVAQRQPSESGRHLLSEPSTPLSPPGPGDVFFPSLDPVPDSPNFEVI
Briefly: Binding affinity to VISTA (unknown origin) assessed as dissociation constant by MST method.

A short description of test [5]: Inhibition of PD-L1 in human PBMC. In kind it is cell-based.
For test [6], the target named is Programmed cell death protein 1/Programmed cell death 1 ligand 1 (Homo sapiens) (UniProt Q15116+Q9NZQ7). Put plainly: Inhibition of recombinant PD-1/PD-L1 signalling route (unknown origin) at 10 uM by HTRF assay relative to control. In kind it is protein-complex assay.
In test [7] the target is T3, V-type immunoglobulin domain-containing suppressor of T-cell activation (Homo sapiens) (UniProt Q9H7M9).
T3 sequence (whole entry): T2 sequence (Q9H7M9 whole entry)
Put plainly: Inhibition of recombinant VISTA signalling pathway (unknown origin) at 10 uM by HTRF assay relative to control.

Usually Kd stands for a measure of binding affinity in units of concentration. A word on the EC50: it is the concentration giving half of the maximal effect. On to `COc1cc(NC(=O)Nc2c(-c3ccncc3)[nH]c3ccc(Cl)cc23)cc(OC)c1`, for which, in test [1], the Kd is 6.7 µM. In addition, the EC50 in test [2] was determined as 1.46 µM.
As usually defined, the IC50 is the concentration that gives 50% inhibition. In the case of `CN(C)c1n/c(=N\Cc2ccco2)ss1`, it took 4.8 µM to reach half-maximal inhibition in test [3] (IC50).
As to `Cc1ccc2nc(Nc3nc(O)cc(CSc4nnc(C)s4)n3)nc(C)c2c1`, the Kd in test [4] amounted to 0.647 µM.
Turning to `C[C@@H](O)[C@H](NC(=O)N[C@@H](CC(N)=O)c1nc([C@H](N)CO)no1)C(=O)O`, the midpoint of the response in test [5], the EC50, lay at 0.0661 µM.
The inhibition is the drop in the measured response relative to a control, in per cent. On to `C[C@@H](O)[C@H](NC(=O)C1(C(=O)N[C@@H](CC(N)=O)c2nc([C@H](N)CO)no2)CCCC1)C(=O)O`, for which the inhibition in test [6] turned out to be 92%; in test [7], 81%.
